A word on the inhibition: it is the drop in the measured response relative to a control, in per cent. Low readings indicate little suppression, high ones strong suppression.

Counter-ions that a name gives are not always drawn.

Sequence of PDE4B (Q07343 whole entry, species assumed): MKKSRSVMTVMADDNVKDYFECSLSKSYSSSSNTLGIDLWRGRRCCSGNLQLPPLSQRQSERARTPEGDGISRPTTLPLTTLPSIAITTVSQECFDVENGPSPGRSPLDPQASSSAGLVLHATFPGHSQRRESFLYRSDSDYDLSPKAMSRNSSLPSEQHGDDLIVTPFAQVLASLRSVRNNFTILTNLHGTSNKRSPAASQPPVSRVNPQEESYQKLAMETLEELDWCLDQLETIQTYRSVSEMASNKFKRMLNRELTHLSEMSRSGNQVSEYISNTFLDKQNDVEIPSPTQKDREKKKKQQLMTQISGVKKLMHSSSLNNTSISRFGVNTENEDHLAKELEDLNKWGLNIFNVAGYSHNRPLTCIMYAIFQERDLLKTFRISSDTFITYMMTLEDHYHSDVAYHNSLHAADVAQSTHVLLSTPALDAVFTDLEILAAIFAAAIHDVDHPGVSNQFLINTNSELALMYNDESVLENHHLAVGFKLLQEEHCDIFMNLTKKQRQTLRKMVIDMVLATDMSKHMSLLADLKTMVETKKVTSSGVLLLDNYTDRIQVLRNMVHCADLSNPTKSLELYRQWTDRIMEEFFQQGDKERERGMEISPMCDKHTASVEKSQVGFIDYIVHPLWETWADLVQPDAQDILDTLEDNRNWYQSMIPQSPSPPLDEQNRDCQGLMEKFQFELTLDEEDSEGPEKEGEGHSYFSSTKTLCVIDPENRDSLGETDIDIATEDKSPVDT

This test deals with PDE4B (Homo sapiens, UniProt Q07343). Briefly: Scintillation Proximity Assay (SPA) of PDE4B enzymatic activity ([H3]-cAMP cleavage). It counts as biochemical. The conditions noted are these: test substance 1 μM; one-hour incubation with [H3]-cAMP and PDE4B at 30° C. How it is done:
The Scintillation Proximity Assay (SPA) (GE Healthcare, No. TRKQ7090) was carried out by using the different affinities of cyclic 3″-5″-adenosinemonophosphate (cAMP, low affinity) and linear 5″-adenosinemonophosphate (AMP, high affinity) for yttrium silicate scintillator beads. The cAMP specific phosphodiesterase (PDE) PDE4B cleaves the 3″-phosphoester bond of tritium-labelled [H3]-cAMP to form [H3]-5″-AMP. This [H3]-AMP accumulates on the scintillator beads because of its higher affinity for them and causes scintillation events (flashes of light) which are measured in a Wallac Microbeta Scintillation Counter.
The experiment starts with a one-hour incubation of [H3]-cAMP with the PDE4B enzyme in assay buffer at 30° C., in each case once with the Example substance to be tested (in a concentration of 1 μM) and once without the Example substance to be tested.
After this incubation, the reaction is stopped by the addition of the beads. The beads have an opportunity to settle in the next 45 minutes, then the measurement is carried out in the Scintillation Counter. If the substance is capable of inhibiting the enzymatic activity of the PDE4B, less [H3]-AMP is produced during the incubation phase and fewer scintillation events can be measured.
A general note: Scintillation proximity formats need no separation of bound from free tracer.
Regarding `[O-][S+]1CCc2nc(N3CCN(c4nccs4)CC3)nc(Nc3cccc(F)c3)c21` (stereo not drawn) [Example 1, (3-fluorophenyl)-[5-oxo-2-(4-thiazol-2-yl-piperazin-1-yl)-6,7-dihydro-5H-5λ^4-thieno[3,2-d]pyrimidin-4-yl]-amine], testing at 1 µM gave an inhibition of 94%.
`CC(C)[C@H](CO)Nc1nc(N2CCN(c3nccs3)CC2)nc2c1[S+]([O-])CC2` (stereo partly drawn) [Example 2, (R)-3-methyl-2-[5-oxo-2-(4-thiazol-2-yl-piperazin-1-yl)-6,7-dihydro-5H-5λ^4-thieno[3,2-d]pyrimidin-4-ylamino]-butan-1-ol] had an inhibition at 1 µM of 90%.
The molecule `[O-][S+]1CCc2nc(N3CCN(c4nc5ccccc5o4)CC3)nc(Nc3cccc(F)c3)c21` (stereo not drawn) [Example 3, [2-(4-benzoxazol-2-yl-piperazin-1-yl)-5-oxo-6,7-dihydro-5H-5λ^4-thieno[3,2-d]pyrimidin-4-yl]-(3-fluorophenyl)-amine] returned an inhibition at 1 µM of 95%.
With `[O-][S+]1CCc2nc(N3CCN(c4nc5ccccc5o4)CC3)nc(NC3CCOCC3)c21` (stereo not drawn) [Example 5, [2-(4-benzoxazol-2-yl-piperazin-1-yl)-5-oxo-6,7-dihydro-5H-5λ^4-thieno[3,2-d]pyrimidin-4-yl]-(tetrahydropyran-4-yl)-amine] the figure was 96%; with `CC(C)[C@H](CO)Nc1nc(N2CCN(c3ccc(Cl)nn3)CC2)nc2c1[S+]([O-])CC2` (stereo partly drawn) [Example 6, (R)-2-{2-[4-(6-chlorpyridazin-3-yl)-piperazin-1-yl]-5-oxo-6,7-dihydro-5H-5λ^4-thieno[3,2-d]pyrimidin-4-ylamino}-3-methylbutan-1-ol], 93%.
`[O-][S+]1CCc2nc(N3CCN(c4ccc(Cl)nn4)CC3)nc(Nc3cccc(F)c3)c21` (stereo not drawn) [Example 7, {2-[4-(6-chlorpyridazin-3-yl)-piperazin-1-yl]-5-oxo-6,7-dihydro-5H-5λ^4-thieno[3,2-d]pyrimidin-4-yl}-(3-fluorophenyl)-amine] showed an inhibition at 1 µM of 95%.
In turn, `CC(C)[C@H](CO)Nc1nc(N2CCN(c3nc4ccccc4o3)CC2)nc2c1[S+]([O-])CC2` (stereo partly drawn) [Example 10, (R)-2-[2-(4-benzoxazol-2-yl-piperazin-1-yl)-5-oxo-6,7-dihydro-5H-5λ^4-thieno[3,2-d]pyrimidin-4-ylamino]-3-methylbutan-1-ol] returned an inhibition at 1 µM of 94%.
In turn, `[O-][S+]1CCc2nc(N3CCN(c4ccc(Cl)cn4)CC3)nc(NC3(CO)CC3)c21` (stereo not drawn) [Example 13, (1-{2-[4-(5-Chloropyridin-2-yl)-piperazin-1-yl]-5-oxo-6,7-dihydro-5H-5λ^4-thieno[3,2-d]pyrimidin-4-ylamino}-cyclopropyl)-methanol] had an inhibition at 1 µM of 95%.
In the case of `[O-][S+]1CCc2nc(N3CCN(c4ccc(Cl)cn4)CC3)nc(NC3CCOCC3)c21` (stereo not drawn) [Example 14, {2-[4-(5-chloropyridin-2-yl)-piperazin-1-yl]-5-oxo-6,7-dihydro-5H-5λ^4-thieno[3,2-d]pyrimidin-4-yl}-(tetrahydropyran-4-yl)-amine], the inhibition at 1 µM was 95%.
Consider `CN(C)c1nnccc1N1CCN(c2nc3c(c(Nc4cccc(F)c4)n2)[S+]([O-])CC3)CC1` (stereo not drawn) [Example 15, {2-[4-(3-dimethylaminopyridazin-4-yl)-piperazin-1-yl]-5-oxo-6,7-dihydro-5H-5λ^4-thieno[3,2-d]pyrimidin-4-yl}-(3-fluorophenyl)-amine], for which the inhibition at 1 µM is 97%.
In turn, `[O-][S+]1CCc2nc(N3CCN(c4cc(Cl)nnc4O)CC3)nc(Nc3cccc(F)c3)c21` (stereo not drawn) [Example 16, 6-chloro-4-{4-[4-(3-fluorophenylamino)-5-oxo-6,7-dihydro-5H-5λ^4-thieno[3,2-d]pyrimidin-2-yl]-piperazin-1-yl}-pyridazin-3-ol] showed an inhibition at 1 µM of 95%.
Molecule `CCOCCOc1ccc(N2CCN(c3nc4c(c(Nc5cccc(F)c5)n3)[S+]([O-])CC4)CC2)nn1` (stereo not drawn) [Example 17, (2-{4-[6-(2-ethoxyethoxy)-pyridazin-3-yl]-piperazin-1-yl}-5-oxo-6,7-dihydro-5H-5λ^4-thieno[3,2-d]pyrimidin-4-yl)-(3-fluorophenyl)-amine] yielded an inhibition at 1 µM of 97%.
With `[O-][S+]1CCc2nc(N3CCN(c4ccnnc4)CC3)nc(Nc3cccc(F)c3)c21` (stereo not drawn) [Example 18, (3-fluorophenyl)-[5-oxo-2-(4-pyridazin-4-yl-piperazin-1-yl) 6,7-dihydro-5H-5λ^4-thieno[3,2-d]pyrimidin-4-yl]-amine], the inhibition at 1 µM came out at 96%.
Consider `COc1cccc2c1nc(N1CCN(c3nc4c(c(N[C@@H](CO)C(C)C)n3)[S+]([O-])CC4)CC1)n2C` (stereo partly drawn) [Example 23, (R)-2-{2-[4-(4-methoxy-1-methyl-1H-benzimidazol-2-yl)-piperazin-1-yl]-5-oxo-6,7-dihydro-5H-5λ^4-thieno[3,2-d]pyrimidin-4-ylamino}-3-methylbutan-1-ol], for which the inhibition at 1 µM is 83%.
For the molecule `CCN1CCc2ncc(N3CCN(c4nc5c(c(N[C@@H](CO)C(C)C)n4)[S+]([O-])CC5)CC3)nc2CC1` (stereo partly drawn) [Example 24, (R)-2-{2-[4-(7-ethyl-6,7,8,9-tetrahydro-5H-pyrazino[2,3-d]azepin-2-yl)-piperazin-1-yl]-5-oxo-6,7-dihydro-5H-5^4-thieno[3,2-d]pyrimidin-4-ylamino}-3-methylbutan-1-ol], testing at 1 µM gave an inhibition of 94%.
As for `CC(C)[C@H](CO)Nc1nc(N2CCN(c3ccncn3)CC2)nc2c1[S+]([O-])CC2` (stereo partly drawn) [Example 28, (R)-3-methyl-2-[5-oxo-2-(4-pyrimidin-4-yl-piperazin-1-yl)-6,7-dihydro-5H-5λ^4-thieno[3,2-d]pyrimidin-4-ylamino]-butan-1-ol trifluoroacetate], 1 µM produced 94% inhibition.
For the molecule `CC(C)[C@H](CO)Nc1nc(N2CCN(c3ccnc(O)c3)CC2)nc2c1[S+]([O-])CC2` (stereo partly drawn) [Example 29, 4-{4-[4((R)-1-hydroxymethyl-2-methylpropylamino)-5-oxo-6,7-dihydro-5H-5λ^4-thieno[3,2-d]pyrimidin-2-yl]-piperazin-1-yl}-pyridin-2-ol], the inhibition at 1 µM came to 94%.
As to `CC(C)[C@H](CO)Nc1nc(N2CCN(c3ccncc3)CC2)nc2c1[S+]([O-])CC2` (stereo partly drawn) [Example 32, (R)-3-methyl-2-[5-oxo-2-(4-pyridin-4-yl-piperazin-1-yl)-6,7-dihydro-5H-5λ^4-thieno[3,2-d]pyrimidin-4-ylamino]-butan-1-ol trifluoroacetate], 1 µM produced 77% inhibition.
In the case of `CC(C)[C@H](CO)Nc1nc(N2CCN(c3ccnnc3N(C)C)CC2)nc2c1[S+]([O-])CC2` (stereo partly drawn) [Example 36, (R)-2-{2-[4-(3-dimethylaminopyridazin-4-yl)-piperazin-1-yl]-5-oxo-6,7-dihydro-5H-5λ^4-thieno[3,2-d]pyrimidin-4-ylamino}-3-methylbutan-1-ol trifluoroacetate], at 1 µM the inhibition was 94%.
`CC(C)[C@H](CO)Nc1nc(N2CCN(c3cc(Cl)nnc3O)CC2)nc2c1[S+]([O-])CC2` (stereo partly drawn) [Example 37] came in with an inhibition at 1 µM of 90%.
Turning to `CCOCCOc1ccc(N2CCN(c3nc4c(c(N[C@@H](CO)C(C)C)n3)[S+]([O-])CC4)CC2)nn1` (stereo partly drawn) [Example 38, (R)-2-(2-{4-[6-(2-ethoxyethoxy)-pyridazin-3-yl]-piperazin-1-yl}-5-oxo-6,7-dihydro-5H-5λ^4-thieno[3,2-d]pyrimidin-4-ylamino)-3-methylbutan-1-ol trifluoroacetate], the inhibition at 1 µM worked out at 96%.
